Laboratory results taken from patent US20050175688A1 (priority 2004, published 2005).

Experiments:
[1] = system: chronic pelvic pain/endometriosis; test: Potaba protocol study: oral Potaba in women with chronic pelvic pain/endometriosis; assay type: in vivo
Procedure: The total number of women under clinical examination was 212.
All of those who volunteered for the therapy protocol met the criteria of 10 points or more on the self-test, that threshold defining a subject who was at risk for endometriosis.
A pelvic pain assessment which was originated by the International Pelvic Pain Society© 1999 (IPPS) was also conducted. IPPS evaluated the volunteer subjects for the following information: pain, menses, bladder, bowel habits, gastro-intestinal/eating habits, health habits, coping mechanisms, a short form McGill questionnaire (psychological; level of depression assay), daily activities, personal history, surgical history, sexual history and physical history.
In addition to a careful review of the pre-test examinations of the prospective subjects, exclusion criteria were also established as a means of reducing unrelated influences into the test results.
Only one physician conducted the physical evaluation of each of the participants to ensure consistency throughout the study. In addition to repeated laboratory and thorough physical examinations, the examining physician personally discussed and recorded responses to questions about the presence or absence of side-effects and improvements in symptoms, if any. […] Although the subjects individual responses to questions regarding symptoms and particularly levels of pain experience throughout the test period inherently can include a subjective element, the questions were repetitiously and precisely posed to the subjects so as to prompt a consistent response minimally effected by the questioner's choice of words, tone, delivery, etc. The test subjects reported pelvic pain experience as a number selected between the levels of 1 to 10, with 1 being no pain experienced and 10 being the most severe level of pain.

[2] = Solubility in water; assay type: physicochemical
[3] = 12 grams/day po, out of 25 participants

Nc1ccc(C(=O)O)cc1 [Potaba, aminobenzoate potassium]
Discontinued Potaba protocol (reason): nausea, No. of Study Participants [1, 3]: 3
Discontinued Potaba protocol (reason): rash, No. of Study Participants [1, 3]: 2
incidence of drug interactions ([1]; oral administration): low incidence of drug interactions
toxicity / safety of oral administration (result in words) ([1]; oral administration, potassium): non-toxic and safe
solubility in water [2]: highly soluble in water
